pIC50: −log10 of the molar value.
Test system: 323965-272-R-J2-PDC complex spheroid viability
Assay: Anticancer human tumor 323965-272-R-J2-PDC patient-derived pancreatic carcinoma cell line growth inhibition [CLK]
Details: for pIC50: curve of first compound; for viability, T/C: stronger effect = lower value
Text: A high-throughput screen of multi-cell type tumor spheroids was designed to identify active combinations of […] and targeted small molecules. Complex spheroids include a stromal component modeled by human endothelial cells (HUVEC) and fibroblasts modeled by human mesenchymal stem cells (MSCs). The concentration ranges selected for each drug and investigational agent were based upon clinically achievable concentrations if the clinical Cmax of the agent was known.
Compounds. The drugs and investigational agents: cirtuvivint (SM08502; NSC835563), CC-671 (NSC850746), vemurafenib (NSC761431), tapotoclax (NSC804041), sotorasib (NSC818433), adagrasib (NSC831453), MRTX-1133 (NSC836407), BAY2416964 (NSC825713), copanlisib (NSC816437), inavolisib (NSC800729), abemaciclib (NSC768073), osimertinib (NSC779217), entinostat (NSC756642), eltanexor (KPT-8602, NSC794443), venetoclax (NSC766270), ceralasertib (NSC777638), bortezomib (NSC756655), olaparib (NSC753686), talazoparib (NSC767125), alisertib (NSC759677), peposertib (NSC802822), gemcitabine (NSC613327), 5-fluorouracil (NSC19893), SN-38 (NSC673596), oxaliplatin (NSC266046), paclitaxel (NSC125973), and doxorubicin (NSC123127), were obtained from the National Cancer Institute (NCI) Developmental Therapeutics Program Chemical Repository. The FDA-approved anticancer drug set is available from the Developmental Therapeutics Program at https://dtp.cancer.gov/organization/dscb/obtaining/available plates.htm. […] The stock solutions were prepared in dimethyl sulfoxide (DMSO, Sigma-Aldrich, St. Louis, MO, cat. D2650), except for the platinum complexes which were prepared in saline (Quality Biological, Gaithersburg, MD, cat. 114-055-101), at 800-fold the tested concentration and stored at -70 degrees C prior to their use. All drugs and investigational agents were tested over a range starting from a high concentration at or near the clinical Cmax and decreasing in half-log increments. If the clinical Cmax for an agent had not been determined, the highest concentration tested was 10 microM.
Cell Culture. All cells were maintained in an incubator at 37 degrees C and 5% CO2 with 95% humidity. The PDC lines were cultured according to standard operating procedures established by the NCI PDMR. Briefly, all PDCs were thawed and cultured in Matrigel-coated flasks prepared with a working solution of 1X Ham's F-12 nutrient mix, without supplementation (Invitrogen, Waltham, MA, cat. 11765054), 100 U/mL penicillin-streptomycin (Invitrogen, cat. 15140122), and 2.5% Matrigel (Corning Inc., Corning, NY, cat. 354248) for the first three passages. The 947758-054-R-J2-PDC line was cultured in 6B/Colon 1A media, which includes advanced DMEM/F-12 (Thermo Fisher Scientific, cat. 12634028), 10 mM HEPES (Thermo Fisher Scientific, cat. 15630080), 1X GlutaMAX supplement (Thermo Fisher Scientific, cat. 35050061), 0.1 mg/mL primocin (InvivoGen, cat. ant-pm-2), 10% defined fetal bovine serum, heat inactivated (HyClone Laboratories Inc., cat. SH30070.03HI), 1.25 mM N-Acetyl-L-cysteine (Sigma-Aldrich, cat. A9165), 10 mM nicotinamide (Sigma-Aldrich, cat. N0636), 1X B-27 supplement (Thermo Fisher Scientific, cat. 17504044), 1X N-2 supplement (Thermo Fisher Scientific, cat. 17502048), and 10 microM Y-27632 dihydrochloride (Tocris Bioscience, cat. 1254). The 876862-298-R-J1-PDC was cultured in 6E media, which includes all 6B/Colon 1A media components plus 50% L-WRN conditioned media (ATCC, cat. CRL-3276), 50 ng/mL recombinant human EGF recombinant protein (hEGF; Thermo Fisher Scientific, cat. PHG0311), 10 ng/mL recombinant human fibroblast growth factor 10 (hGFG-10; PeproTech, cat. 100-26), 1 ng/mL recombinant human fibroblast growth factor 2 (hFGF-2; PeproTech, cat. 100-18B), and 1 µM prostaglandin E2 (PGE2; Tocris, cat. 2296). The 227483-062-R1-J1-PDC line was cultured in Panc media, containing all 6E components except hFGF-2, with the addition of 500 nM SB-431542 (Selleckchem, cat. S1067) and 10 nM gastrin (Tocris, cat. 3006). […]

[1] = second compound 0.0316 µM, first compound 0.0316 µM
[2] = second compound 0.0316 µM, first compound 0.1 µM
[3] = second compound 0.0316 µM, first compound 0.316 µM
[4] = second compound 0.0316 µM, first compound 1 µM
[5] = second compound 0.0316 µM, first compound 3.16 µM
[6] = second compound 0.0316 µM, first compound 10 µM
[7] = second compound 0.1 µM, first compound 0.0316 µM
[8] = second compound 0.1 µM, first compound 0.1 µM
[9] = second compound 0.1 µM, first compound 0.316 µM
[10] = second compound 0.1 µM, first compound 1 µM
[11] = second compound 0.1 µM, first compound 3.16 µM
[12] = second compound 0.1 µM, first compound 10 µM
[13] = second compound 0.316 µM, first compound 0.0316 µM
[14] = second compound 0.316 µM, first compound 0.1 µM
[15] = second compound 0.316 µM, first compound 0.316 µM
[16] = second compound 0.316 µM, first compound 1 µM
[17] = second compound 0.316 µM, first compound 3.16 µM
[18] = second compound 0.316 µM, first compound 10 µM
[19] = second compound 1 µM, first compound 0.0316 µM
[20] = second compound 1 µM, first compound 0.1 µM
[21] = second compound 1 µM, first compound 0.316 µM
[22] = second compound 1 µM, first compound 1 µM
[23] = second compound 1 µM, first compound 3.16 µM
[24] = second compound 1 µM, first compound 10 µM
[25] = second compound 3.16 µM, first compound 0.0316 µM
[26] = second compound 3.16 µM, first compound 0.1 µM
[27] = second compound 3.16 µM, first compound 0.316 µM
[28] = second compound 3.16 µM, first compound 1 µM
[29] = second compound 3.16 µM, first compound 3.16 µM
[30] = second compound 3.16 µM, first compound 10 µM
[31] = second compound 10 µM, first compound 0.0316 µM
[32] = second compound 10 µM, first compound 0.1 µM
[33] = second compound 10 µM, first compound 0.316 µM
[34] = second compound 10 µM, first compound 1 µM
[35] = second compound 10 µM, first compound 3.16 µM
[36] = second compound 10 µM, first compound 10 µM
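Further: spheroids exposed to agents for seven days before readout.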
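Wherever viability, T/C is given: percent of DMSO vehicle control wells so 100% = untreated growth.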

C=CC(=O)N1CCN(c2nc(=O)n(-c3c(C)ccnc3C(C)C)c3nc(-c4c(O)cccc4F)c(F)cc23)C(C)C1 (stereo unspecified) + CN1CCN(c2cc(C(=O)Nc3cc4cc(-c5cnn(C)c5)ccc4cn3)ccn2)CC1
pIC50 (second compound 0.0316 µM): < 5.00
pIC50 (second compound 0.1 µM): > 7.50
pIC50 (second compound 0.316 µM): > 7.50
pIC50 (second compound 1 µM): > 7.50
pIC50 (second compound 3.16 µM): > 7.50
pIC50 (second compound 10 µM): > 7.50
viability, T/C [1]: 63%
viability, T/C [2]: 64.3%
viability, T/C [3]: 55%
viability, T/C [4]: 63.9%
viability, T/C [5]: 60.1%
viability, T/C [6]: 67.9%
viability, T/C [7]: 51.3%
viability, T/C [8]: 45.8%
viability, T/C [9]: 39.8%
viability, T/C [10]: 57.4%
viability, T/C [11]: 51.5%
viability, T/C [12]: 46.6%
viability, T/C [13]: 17.9%
viability, T/C [14]: 17.9%
viability, T/C [15]: 16%
viability, T/C [16]: 18.2%
viability, T/C [17]: 17.4%
viability, T/C [18]: 22.6%
viability, T/C [19]: 2.53%
viability, T/C [20]: 3.03%
viability, T/C [21]: 3.22%
viability, T/C [22]: 3.64%
viability, T/C [23]: 5.21%
viability, T/C [24]: 5.85%
viability, T/C [25]: 2.77%
viability, T/C [26]: 2.98%
viability, T/C [27]: 3.49%
viability, T/C [28]: 3.29%
viability, T/C [29]: 5.91%
viability, T/C [30]: 5.6%
viability, T/C [31]: 3.45%
viability, T/C [32]: 3.36%
viability, T/C [33]: 3.83%
viability, T/C [34]: 3.24%
viability, T/C [35]: 4.22%
viability, T/C [36]: 4.53%

CCCS(=O)(=O)Nc1ccc(F)c(C(=O)c2c[nH]c3ncc(-c4ccc(Cl)cc4)cc23)c1F + CN1CCN(c2cc(C(=O)Nc3cc4cc(-c5cnn(C)c5)ccc4cn3)ccn2)CC1
pIC50 (second compound 0.0316 µM): < 5.00
pIC50 (second compound 0.1 µM): < 5.00
pIC50 (second compound 0.316 µM): > 7.50
pIC50 (second compound 1 µM): > 7.50
pIC50 (second compound 3.16 µM): > 7.50
pIC50 (second compound 10 µM): > 7.50
viability, T/C [1]: 97.9%
viability, T/C [2]: 102%
viability, T/C [3]: 102%
viability, T/C [4]: 111%
viability, T/C [5]: 101%
viability, T/C [6]: 78.7%
viability, T/C [7]: 68.4%
viability, T/C [8]: 68.1%
viability, T/C [9]: 80.1%
viability, T/C [10]: 83%
viability, T/C [11]: 84.7%
viability, T/C [12]: 66.5%
viability, T/C [13]: 28.1%
viability, T/C [14]: 26.3%
viability, T/C [15]: 30.5%
viability, T/C [16]: 34.7%
viability, T/C [17]: 32.3%
viability, T/C [18]: 35%
viability, T/C [19]: 4.7%
viability, T/C [20]: 3.95%
viability, T/C [21]: 3.77%
viability, T/C [22]: 4.38%
viability, T/C [23]: 4.19%
viability, T/C [24]: 6.54%
viability, T/C [25]: 4.04%
viability, T/C [26]: 4.11%
viability, T/C [27]: 4.16%
viability, T/C [28]: 4.42%
viability, T/C [29]: 5.61%
viability, T/C [30]: 6.54%
viability, T/C [31]: 4.15%
viability, T/C [32]: 4.79%
viability, T/C [33]: 4.2%
viability, T/C [34]: 4.29%
viability, T/C [35]: 4.87%
viability, T/C [36]: 5.79%

COC1C=CCC(C)C(C)S(=O)(=O)NC(=O)c2ccc3c(c2)N(CC2CCC21)CC1(CCCc2cc(Cl)ccc21)CO3 (stereo unspecified) + CN1CCN(c2cc(C(=O)Nc3cc4cc(-c5cnn(C)c5)ccc4cn3)ccn2)CC1
pIC50 (second compound 0.0316 µM): 6.08
pIC50 (second compound 0.1 µM): 6.34
pIC50 (second compound 0.316 µM): > 7.50
pIC50 (second compound 1 µM): > 7.50
pIC50 (second compound 3.16 µM): > 7.50
pIC50 (second compound 10 µM): > 7.50
viability, T/C [1]: 97.8%
viability, T/C [2]: 92.1%
viability, T/C [3]: 62%
viability, T/C [4]: 47.8%
viability, T/C [5]: 30%
viability, T/C [6]: 12.3%
viability, T/C [7]: 72.5%
viability, T/C [8]: 67%
viability, T/C [9]: 53.5%
viability, T/C [10]: 39.1%
viability, T/C [11]: 28.9%
viability, T/C [12]: 10.4%
viability, T/C [13]: 27.5%
viability, T/C [14]: 26.2%
viability, T/C [15]: 21.1%
viability, T/C [16]: 17.7%
viability, T/C [17]: 15.1%
viability, T/C [18]: 9.86%
viability, T/C [19]: 3.35%
viability, T/C [20]: 4.19%
viability, T/C [21]: 4.18%
viability, T/C [22]: 3.31%
viability, T/C [23]: 1.96%
viability, T/C [24]: 2.43%
viability, T/C [25]: 3.51%
viability, T/C [26]: 3.78%
viability, T/C [27]: 3.33%
viability, T/C [28]: 3.25%
viability, T/C [29]: 2.59%
viability, T/C [30]: 2.44%
viability, T/C [31]: 5.25%
viability, T/C [32]: 3.97%
viability, T/C [33]: 3.84%
viability, T/C [34]: 3.47%
viability, T/C [35]: 2.83%
viability, T/C [36]: 2.37%

From PubChem BioAssay AID2060619 (Molecular Pharmacology Branch, DTP, NCI, 2025)
